Results on 83 compounds are retold here after ChEMBL document CHEMBL3988442, “University of Dundee, Small-Polar-MMV Screening Library” (2021).

The nature of assay [1]: microbe, parasite or virus in culture. Conditions: Mycobacterium tuberculosis, 72 h, read-out: pIC50 (converted).
Assay [2] is described as follows: microbe, parasite or virus in culture. Conditions: Mycobacterium tuberculosis, 96 h, read-out: pIC50 (converted).

As to `CCCS(=O)(=O)NCCOc1ccc(C#N)cc1`, the IC50 was 220 µM in assay [1] and 291 µM in assay [2].
Turning to `COC(=O)COc1cc(NCc2c(C)noc2C)c(Cl)cc1C`, the IC50 in assay [1] is 32.1 µM; in assay [2], 35 µM.
Consider `FC(F)Oc1cccc(C2CNCCO2)c1` (stereo unspecified), for which the IC50 in assay [1] is 34 µM; in assay [2], 112 µM.
In the case of `Cc1ccc(OCC(=O)NC2(C#N)CCSCC2)cc1C`, the IC50 in assay [1] was 20.7 µM; in assay [2], 2.04 µM.
As for `COc1cccc(CNc2nc(C(C)C)nn2C)n1`, the IC50 in assay [1] is 315 µM; in assay [2], > 501 µM.
The matching figures for `Nc1cc(-c2cccnc2)on1`: 284 µM and > 501 µM.
Taken in the same sequence, the figures for `NS(=O)(=O)c1cccc(S(=O)(=O)c2ccc(Cl)cc2)c1` were 71.4 µM and 283 µM.
For the compound `Cc1cc(-c2noc(C(C)N)n2)ccc1F` (stereo unspecified), the figures for the IC50 in assay [1] and in assay [2] were 457 µM and > 501 µM, respectively.
Consider `COc1cccc(-c2cnn(CCC(N)=O)c2)c1F`, for which the results for the IC50 in assay [1] and in assay [2] were 355 µM and > 501 µM, respectively.
Taken in the same sequence, the figures for `CCCC(=O)NC(C)(C)Cc1ccccc1OC` were 3.52 µM and > 50.1 µM.
As to `Cc1ccc2oc(N3CCNCC3)nc2c1`, the IC50 in assay [1] was 190 µM; in assay [2], > 501 µM.
With `CSC1=Nc2c(cnn2-c2cccc(Cl)c2)C2=NCCCN12`, the IC50 is 5.78 µM in assay [1] and 28.3 µM in assay [2].
Turning to `CN(Cc1cccn1C)C(=O)c1ccccc1F`, the IC50 in assay [1] is 219 µM; in assay [2] it was 262 µM.
Take `Cc1n[nH]c(C)c1CN(C)C(C(=O)O)c1c(F)cccc1OC(C)C` (stereo unspecified): the IC50 in assay [1] and in assay [2] was > 50.1 µM each time.
As for `COc1ccc2c(c1)OCC(CNC(=O)CN(C)C)C2` (stereo unspecified), the IC50 in assay [1] and in assay [2] was > 501 µM throughout.
Regarding `Cc1nccc(C(=O)N2CCCN(Cc3cnn(C(C)C)c3)CC2)n1`, the IC50 in assay [1] and in assay [2] was > 50.1 µM throughout.
`COCCN(C)CCNC(=O)c1ccc(Cl)cc1`: the values for the IC50 in assay [1] and in assay [2] were 165 µM and > 501 µM, respectively.
For the compound `CN(C)CCNC(=O)c1ccc(Cl)cc1`, the IC50 in assay [1] and in assay [2] was > 501 µM in each case.
In the case of `O=C(CCC(=O)c1ccc(F)cc1)NCc1ccco1`, the IC50 in assay [1] was 219 µM; in assay [2], > 501 µM.
Consider `CCNc1ncc(C(=O)N(C)Cc2ccsc2)cn1`, for which the IC50 in assay [1] and in assay [2] was > 501 µM throughout.
On to `Cc1cc(Br)cc2cc(C(=O)NC(C)(CO)CO)oc12`, for which the IC50 is 369 µM in assay [1] and 285 µM in assay [2].
The matching figures for `O=S(=O)(NCCNc1ccc(-n2cccc2)nn1)c1cccs1`: 14 µM and 13.4 µM.
For the compound `CC(C)Cc1ccc(CS(=O)(=O)CCO)cc1`, the IC50 in assay [1] is 353 µM; in assay [2], 83.5 µM.
For the compound `N#Cc1ccc(NC2CCN(c3ncccn3)CC2)cc1C(F)(F)F`, the IC50 in assay [1] is 12.2 µM; in assay [2], 6.68 µM.
`COCCC(C)NC(=O)Nc1ccc(N2CCOC2=O)c(OC)c1` (stereo unspecified): the IC50 in assay [1] and in assay [2] was > 50.1 µM in each case.
With `O=C(c1c[nH]c2ccccc2c1=O)N1CCSCC1`, the IC50 in assay [1] is 27.8 µM; in assay [2] it was > 50.1 µM.
Turning to `NS(=O)(=O)c1cccc2c1CCCN2Cc1nccs1`, the IC50 in assay [1] and in assay [2] was > 501 µM each time.
As for `COCCNC(=O)c1cc2cc(C)ccc2n1C`, the IC50 in assay [1] is 173 µM; in assay [2], > 501 µM.
For the compound `Cn1cc(NC(=O)C2=Cc3ccccc3OC2)cn1`, the IC50 in assay [1] and in assay [2] was > 501 µM throughout.
Regarding `CN(C)C(CN)c1ccc(F)cc1` (stereo unspecified), the figures for the IC50 in assay [1] and in assay [2] were 244 µM and > 501 µM, respectively.
Take `CN(Cc1nnc2n1CCC2)C(=O)c1ccc2c(c1)OCCCO2`: the IC50 in assay [1] and in assay [2] was > 50.1 µM throughout.
As for `OCCNCCNCc1ccc(-c2ccccc2F)o1`, the values for the IC50 in assay [1] and in assay [2] were 211 µM and 40.9 µM, respectively.
Taken in the same sequence, the figures for `Cc1cccc(CN2C[C@H]3CC[C@@H]2CN(Cc2[nH]cnc2C)C3)n1` were > 50.1 µM and > 50.1 µM.
Turning to `CN(C)C(=O)CCOC(=O)c1cccc(Cl)c1`, the IC50 in assay [1] is 227 µM; in assay [2] it was > 501 µM.
As for `CNC(=O)NC(=O)CSc1ccccc1F`, the IC50 in assay [1] and in assay [2] was > 501 µM in each case.
With `CC1CCN(C(=O)C(C)Oc2ccc3c(c2)OCO3)CC1` (stereo unspecified), the IC50 in assay [1] is 30.1 µM; in assay [2], 38.9 µM.
`CN(C)C(=O)CCCn1nnc(-c2ccsc2)n1`: the IC50 was 89.8 µM in assay [1] and 155 µM in assay [2].
With `Nc1nccnc1C(=O)NCc1cc(Br)cs1`, the IC50 in assay [1] was 93.5 µM; in assay [2] it was 132 µM.
With `CCSc1nnc(-c2ccc[nH]2)o1`, the figures for the IC50 in assay [1] and in assay [2] were 169 µM and 188 µM, respectively.
Turning to `O=C(NCc1cccnc1)C1COc2ccccc2O1` (stereo unspecified), the IC50 in assay [1] and in assay [2] was > 501 µM each time.
Consider `COc1cc(Oc2ncccc2C(F)(F)F)ccc1CN1CCCC1`, for which the IC50 in assay [1] is > 50.1 µM; in assay [2], 21 µM.
Taken in the same sequence, the figures for `CC(=O)NCc1noc2c1CN(Cc1ccsc1)CC2` were > 50.1 µM and > 50.1 µM.
Taken in the same sequence, the figures for `CSc1ccc(C(CN)N(C)C)cc1` (stereo unspecified) were 215 µM and 319 µM.
With `COc1ccc(COCC(O)CN(C)c2ccc(C)cc2C)cc1` (stereo unspecified), the results for the IC50 in assay [1] and in assay [2] were 16 µM and 16.8 µM, respectively.
As for `OCC1CN(c2ncc(Cl)cc2F)CCO1` (stereo unspecified), the IC50 is 115 µM in assay [1] and 180 µM in assay [2].
Regarding `CCOC(=O)CNC(=O)c1ccc2c(c1)OCCO2`, the IC50 in assay [1] and in assay [2] was > 501 µM each time.
`CN1CCCN(C(=O)c2ccco2)c2ccccc21`: the IC50 in assay [1] was 119 µM; in assay [2], 191 µM.
`Cc1ccccc1OCC1CCCN(c2cc(N)nc(N)n2)C1` (stereo unspecified): the figures for the IC50 in assay [1] and in assay [2] were 35.7 µM and 30.1 µM, respectively.
As to `COCCN(Cc1cccs1)C(=O)CC1CCNC1` (stereo unspecified), the IC50 in assay [1] was 159 µM; in assay [2] it was 329 µM.
In the case of `COc1cc(F)cc(NCC(=O)NCc2ccco2)c1`, the IC50 is 35 µM in assay [1] and 32.7 µM in assay [2].
As for `COC(=O)CNC(=O)c1ccc(C)c(-n2cccc2)c1`, the IC50 in assay [1] and in assay [2] was > 501 µM in each case.
`COCCc1noc(C2CNC2)n1`: the IC50 in assay [1] is 247 µM; in assay [2], 250 µM.
The matching figures for `Cc1cncc(NCc2ccccc2N2CCOCC2)c1`: 6.63 µM and 6.18 µM.
In the case of `CCC1(CO)CCCN(CCn2cc(Cl)cn2)C1` (stereo unspecified), the IC50 in assay [1] was 138 µM; in assay [2], 144 µM.
The matching figures for `Clc1cccc2nc(N3CCNCC3)oc12`: 144 µM and 349 µM.
The matching figures for `CN(Cc1ccncc1)S(=O)(=O)c1cccs1`: 116 µM and > 501 µM.
`Cc1ncsc1CCCNC(=O)c1cnccn1`: the IC50 in assay [1] and in assay [2] was > 501 µM in each case.
With `O=S(=O)(NC1CCCC1)c1cncc(Cl)c1`, the IC50 was 226 µM in assay [1] and > 501 µM in assay [2].
Taken in the same sequence, the figures for `COc1cc(N2CCNCC2)ccc1F` were 281 µM and > 501 µM.
Turning to `CCOc1ccc(C(C)=O)cc1CN1CCCC1`, the IC50 was 59.8 µM in assay [1] and 111 µM in assay [2].
`CN(Cc1cnn(C)c1)C(=O)c1ccc(=O)n(C)n1`: the IC50 in assay [1] and in assay [2] was > 50.1 µM throughout.
Take `CCN(Cc1ccc(Cl)c(Cl)c1)C(=O)CCS(C)(=O)=O`: the IC50 was 129 µM in assay [1] and > 501 µM in assay [2].
`NC(=O)C(Sc1nnc[nH]1)c1ccc(Br)cc1` (stereo unspecified): the IC50 in assay [1] and in assay [2] was > 501 µM in each case.
For `O=C(NCC1CCN(C2CC2)C1)c1ccccc1F` (stereo unspecified), the IC50 was 423 µM in assay [1] and 376 µM in assay [2].
Regarding `CC(=O)c1ccc(S(C)(=O)=O)c(N2CCC(C)(C)C2)c1`, the IC50 in assay [1] and in assay [2] was > 501 µM each time.
On to `Cn1c(-c2ccccc2Cl)nc2cc(C(=O)NC(CO)CO)cnc21`, for which the IC50 in assay [1] and in assay [2] was > 50.1 µM in each case.
Consider `O=C1C=CC(=O)N1Cc1ccc(Cl)cc1`, for which the IC50 was 129 µM in assay [1] and 174 µM in assay [2].
`COc1cc(C(=O)NCC2CCC2)cc2c1OCCO2`: the values for the IC50 in assay [1] and in assay [2] were 245 µM and 321 µM, respectively.
For the compound `CC(C)NC(=O)c1ccc(N2CCCCC2=O)cc1`, the IC50 in assay [1] and in assay [2] was > 501 µM throughout.
Consider `Oc1cccc(CNc2cccnc2-n2cccn2)c1`, for which the results for the IC50 in assay [1] and in assay [2] were 222 µM and 74.1 µM, respectively.
In the case of `Cn1ccnc1CN1CCC2(CC(=O)N(c3cncnc3)C2)C1` (stereo unspecified), the IC50 in assay [1] and in assay [2] was > 50.1 µM each time.
Regarding `CCC(CO)(CO)NCc1csc(-c2cccs2)n1`, the IC50 in assay [1] and in assay [2] was > 501 µM each time.
`CCC1(NC(=O)c2coc(S(=O)(=O)N(C)C)c2)CCC1`: the IC50 in assay [1] and in assay [2] was > 501 µM throughout.
As for `Brc1cccc2c1CNCCO2`, the IC50 in assay [1] is 213 µM; in assay [2], > 501 µM.
In the case of `CN(C)C(C)(C)CNC(=O)NCCC1CCCCO1` (stereo unspecified), the IC50 in assay [1] and in assay [2] was > 501 µM in each case.
Take `CCOC(=O)N1CCC(NC(=O)c2ccsc2)CC1`: the IC50 in assay [1] is 137 µM; in assay [2], > 501 µM.
Taken in the same sequence, the figures for `O=C(C1Cc2cc(Cl)ccc2O1)N1CCOCC1` (stereo unspecified) were > 501 µM and > 501 µM.
In the case of `N[C@@H]1C[C@H]1c1c(F)cccc1F`, the IC50 in assay [1] and in assay [2] was > 501 µM in each case.
In the case of `CC(C)(N)CN1CCCN(c2ccc(F)cc2)CC1`, the IC50 in assay [1] was 203 µM; in assay [2] it was 265 µM.
Turning to `N#CCCN1CCCN(c2ccc(C#N)cc2)CC1`, the IC50 in assay [1] is 232 µM; in assay [2] it was 262 µM.
Turning to `NCc1cc(Cl)ccn1`, the values for the IC50 in assay [1] and in assay [2] were 156 µM and 301 µM, respectively.
`CC(C)(C)c1ccc2c(c1)C(N)C(=O)N2` (stereo unspecified): the IC50 in assay [1] was 377 µM; in assay [2], 260 µM.
Regarding `Cc1ccc(NC(=O)C(C)N2CCC(O)CC2)cc1F` (stereo unspecified), the IC50 was 200 µM in assay [1] and 284 µM in assay [2].
